Assay results from ChEMBL document CHEMBL1201862, “PubChem BioAssay data set” (2004).
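Briefly, cells in 96-well plates were exposed to five compound concentrations for 48 h, and endpoints were estimated by linear interpolation. At the GI50, growth is halved.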 The source made the active and inactive calls. Cut-off read from the data, not from the text of the source: active = GI50 up to about 1.1 µM and inactive = higher.

Legend:
Experiment in all cases: NCI tumour cell line growth inhibition, 48 h
[1] = system: TK-10
[2] = system: NCI-H23
[3] = system: SF-295
[4] = system: NCI-H522
[5] = system: EKVX
[6] = system: RPMI-8226
[7] = system: SK-MEL-5
[8] = system: MDA-MB-231
[9] = system: SK-MEL-2
[10] = system: SF-539
[11] = system: UO-31
[12] = system: COLO 205
[13] = system: SK-MEL-28
[14] = system: HCT-15
[15] = system: A549
[16] = system: IGROV-1
[17] = system: NCI-H460
[18] = system: K562

Cc1c(/N=C/C=C/c2ccccc2)c(=O)n(-c2ccccc2)n1C
GI50 [1]: 30.2 µM (inactive) | GI50 [2]: 23.4 µM (inactive) | GI50 [3]: 14.4 µM (inactive) | GI50 [4]: 50.8 µM (inactive) | GI50 [5]: 27.2 µM (inactive) | GI50 [6]: 14.3 µM (inactive) | GI50 [7]: 15.3 µM (inactive) | GI50 [8]: 34.8 µM (inactive) | GI50 [9]: 88.7 µM (inactive) | GI50 [10]: 23 µM (inactive) | GI50 [11]: 36.5 µM (inactive) | GI50 [12]: > 100 µM (inactive) | GI50 [13]: 14.6 µM (inactive) | GI50 [14]: 47 µM | GI50 [15]: > 100 µM (inactive) | GI50 [16]: 33.7 µM (inactive) | GI50 [17]: 87.5 µM (inactive)

Cc1sc2nc(-c3ccc([N+](=O)[O-])cc3)c(/C=N/N=C(N)N)n2c1C
GI50 [1]: 1.5 µM (inactive) | GI50 [2]: 1.43 µM (inactive) | GI50 [3]: 1.16 µM (inactive) | GI50 [4]: 1.32 µM (inactive) | GI50 [5]: 1.17 µM (inactive) | GI50 [6]: 0.468 µM (active) | GI50 [7]: 1.38 µM (inactive) | GI50 [8]: 0.28 µM (active) | GI50 [18]: 0.202 µM (active) | GI50 [9]: 0.457 µM (active) | GI50 [10]: 1.72 µM (inactive) | GI50 [11]: 1.62 µM (inactive) | GI50 [12]: 0.251 µM (active) | GI50 [13]: 0.361 µM (active) | GI50 [14]: 1.35 µM | GI50 [15]: 1.45 µM (inactive) | GI50 [16]: 1.4 µM (inactive) | GI50 [17]: 1.75 µM (inactive)

c1ccc(/C(=N/Nc2ccccn2)c2ncccn2)cc1
GI50 [2]: 1.74 µM (inactive) | GI50 [3]: 3.6 µM (inactive) | GI50 [4]: < 0.0172 µM (active) | GI50 [5]: 0.292 µM (active) | GI50 [6]: 1.39 µM (inactive) | GI50 [7]: 0.745 µM (active) | GI50 [8]: 0.55 µM (active) | GI50 [18]: 0.121 µM (active) | GI50 [9]: > 28 µM (inactive) | GI50 [10]: 3.52 µM (inactive) | GI50 [11]: 0.617 µM (active) | GI50 [12]: < 0.0139 µM (active) | GI50 [13]: 3.93 µM (inactive) | GI50 [14]: 0.526 µM | GI50 [15]: 3.62 µM (inactive) | GI50 [16]: 2.07 µM (inactive) | GI50 [17]: 0.906 µM (active)

NC(=O)ON=C1CCN(Cc2ccccc2)CC1
GI50 [1]: 29.9 µM (inactive) | GI50 [2]: > 100 µM (inactive) | GI50 [3]: > 100 µM (inactive) | GI50 [4]: > 100 µM (inactive) | GI50 [5]: > 100 µM (inactive) | GI50 [6]: > 100 µM (inactive) | GI50 [7]: > 100 µM (inactive) | GI50 [8]: > 100 µM (inactive) | GI50 [18]: > 100 µM (inactive) | GI50 [9]: > 100 µM (inactive) | GI50 [10]: > 100 µM (inactive) | GI50 [11]: > 100 µM (inactive) | GI50 [12]: > 100 µM (inactive) | GI50 [13]: > 100 µM (inactive) | GI50 [14]: > 100 µM | GI50 [15]: > 100 µM (inactive) | GI50 [16]: > 100 µM (inactive) | GI50 [17]: > 100 µM (inactive)
